Assay [1] relates to MCF-7 breast tumour cell line. Kind of assay: Tumor cell proliferation assay (CellTiter-Glo), MCF-7. Format: cell-based. Particulars: Homo sapiens, MCF7, 72 h drug exposure, read-out: MCF-7 median IC50.
Assay [2] has as its system phospho-AKT at S473. Description: Cellular p-AKT1/2/3-S473 assay in KPL-4 cells. The class given is cell-based. Particulars: Homo sapiens, KPL4; KPL-4 breast tumour cell line, compound treatment 2 hours; read-out: pAKT-S473 median IC50.
Assay [3] addresses His-tagged human recombinant kinase full-length Akt2 (Homo sapiens (Human), UniProt P31751). Description: Akt2 kinase assay (Akt2 TR-FRET assay). The conditions noted are these: 10 μM ATP, 60 min at 22° C., read-out: Akt2 median IC50. Format: biochemical. In general terms: TR-FRET usually uses a lanthanide donor and a delayed reading to cut background.
Excerpt: Akt2 inhibitory activity of compounds of the present invention was quantified employing the Akt2 TR-FRET assay as described in the following paragraphs.
His-tagged human recombinant kinase full-length Akt2 expressed in insect cells and activated by PDK1 was purchased form Invitrogen (part number PV 3975). As substrate for the kinase reaction the biotinylated peptide biotin-Ahx-[sequence] (C-terminus in amide form) was used which can be purchased e.g. from the company Biosynthan GmbH (Berlin-Buch, Germany). For the assay 50 nl of a 100 fold concentrated solution of the test compound in DMSO was pipetted into a black low volume 384 well microtiter plate (Greiner Bio-One, Frickenhausen, Germany), 2 μl of a solution of Akt2 in assay buffer [50 mM TRIS/HCl pH 7.5, 5 mM MgCl2, 1 mM dithiothreitol, 0.02% (v/v) Triton X-100 (Sigma)] were added and the mixture was incubated for 15 min at 22° C. to allow pre-binding of the test compounds to the enzyme before the start of the kinase reaction. Then the kinase reaction was started by the addition of 3 μl of a solution of adenosine-tri-phosphate (ATP, 16.7 μM=>final conc. in the 5 μl assay volume is 10 μM) and substrate (1.67 μM=>final conc. in the 5 μl assay volume is 1 μM) in assay buffer and the resulting mixture was incubated for a reaction time of 60 min at 22° C. The concentration of Akt2 in the assay was adjusted depending of the activity of the enzyme lot and was chosen appropriate to have the assay in the linear range, typical enzyme concentrations were in the range of about 0.2 ng/μl (final conc. in the 5 μl assay volume). The reaction was stopped by the addition of 5 μl of a solution of HTRF detection reagents (200 nM streptavidine-XL665 [Cisbio] and 1.5 nM anti-phosho-Serine antibody [Millipore, cat. #35-001] and 0.75 nM LANCE Eu-W 1024 labeled anti-mouse IgG antibody [Perkin Elmer]) in an aqueous EDTA-solution (100 mM EDTA, 0.1% (w/v) bovine serum albumin in 50 mM HEPES/NaOH pH 7.5). The resulting mixture was incubated 1 h at 22° C. to allow the binding of the biotinylated phosphorylated peptide to the streptavidine-XL665 and the antibodies. Subsequently the amount of phosphorylated substrate was evaluated by measurement of the resonance energy transfer from the anti-mouse-IgG-Eu-Chelate to the streptavidine-XL665. Therefore, the fluorescence emissions at 620 nm and 665 nm after excitation at 350 nm was measured in a TR-FRET reader, e.g. a Rubystar (BMG Labtechnologies, Offenburg, Germany) or a Viewlux (Perkin-Elmer). The ratio of the emissions at 665 nm and at 622 nm was taken as the measure for the amount of phosphorylated substrate.
Assay [4] concerns KPL-4 breast cancer cell line. Kind of assay: Tumor cell proliferation assay (CellTiter-Glo), KPL-4. The class given is cell-based. Particulars: Homo sapiens, KPL4, 72 h drug exposure, read-out: KLP-4 median IC50. Background: ATP-based viability assays read luminescence as a measure of living cells.
The subject of assay [5] is p-4E-BP1 at T70. Description: Cellular p-4E-BP1-T70 assay in KPL-4 cells. The class given is cell-based. The conditions noted are these: Homo sapiens, KPL4; KPL-4 breast tumour cell line, compound treatment 2 hours; read-out: P4EBP1-T70 median IC50.
Description: The molecular mechanism of action was investigated in a set of experiments to assess the inhibition of the PI3K-AKT-mTOR pathway in responsive cell lines such as KPL-4 breast tumour cell line (PIK3CA^H1047R, HER2^O/E and hormone independent). The phospho-substrates of PI3K-AKT-mTOR axis were used as the read-outs to reflect pathway inhibition. Cells were seeded at 60-80% confluency per well in 96-well cell culture plates. After overnight incubation at 37° C. 5% CO2, cells were treated with compounds and vehicle at 37° C. for 2 hours. […] All measurements where at least done in duplicates and confirmed by independent repetition.
Assay [6] concerns the target His-tagged human recombinant kinase full-length Akt1 (Homo sapiens (Human), UniProt P31749). Kind of assay: Akt1 kinase assay (Akt1 TR-FRET assay). Format: biochemical. Particulars: 10 μM ATP, 60 min at 22° C., read-out: Akt1 median IC50.
Excerpt: Biological Assay 1.0: Akt1 Kinase Assay
Akt1 inhibitory activity of compounds of the present invention was quantified employing the Akt1 TR-FRET assay as described in the following paragraphs.
His-tagged human recombinant kinase full-length Akt1 expressed in insect cells was purchased form Invitrogen (part number PV 3599). As substrate for the kinase reaction the biotinylated peptide biotin-Ahx-[sequence] (C-terminus in amide form) was used which can be purchased e.g. from the company Biosynthan GmbH (Berlin-Buch, Germany).
For the assay 50 nl of a 100 fold concentrated solution of the test compound in DMSO was pipetted into a black low volume 384 well microtiter plate (Greiner Bio-One, Frickenhausen, Germany), 2 μl of a solution of Akt1 in assay buffer [50 mM TRIS/HCl pH 7.5, 5 mM MgCl2, 1 mM dithiothreitol, 0.02% (v/v) Triton X-100 (Sigma)] were added and the mixture was incubated for 15 min at 22° C. to allow pre-binding of the test compounds to the enzyme before the start of the kinase reaction. Then the kinase reaction was started by the addition of 3 μl of a solution of adenosine-tri-phosphate (ATP, 16.7 μM=>final conc. in the 5 μl assay volume is 10 μM) and substrate (1.67 μM=>final conc. in the 5 μl assay volume is 1 μM) in assay buffer and the resulting mixture was incubated for a reaction time of 60 min at 22° C. The concentration of Akt1 in the assay was adjusted depending of the activity of the enzyme lot and was chosen appropriate to have the assay in the linear range, typical enzyme concentrations were in the range of about 0.05 ng/μl (final conc. in the 5 μl assay volume). The reaction was stopped by the addition of 5 μl of a solution of HTRF detection reagents (200 nM streptavidine-XL665 [Cisbio] and 1.5 nM anti-phosho-Serine antibody [Millipore, cat. #35-001] and 0.75 nM LANCE Eu-W 1024 labeled anti-mouse IgG antibody [Perkin Elmer]) in an aqueous EDTA-solution (100 mM EDTA, 0.1% (w/v) bovine serum albumin in 50 mM HEPES/NaOH pH 7.5). The resulting mixture was incubated 1 h at 22° C. to allow the binding of the biotinylated phosphorylated peptide to the streptavidine-XL665 and the antibodies. Subsequently the amount of phosphorylated substrate was evaluated by measurement of the resonance energy transfer from the anti-mouse-IgG-Eu-Chelate to the streptavidine-XL665. Therefore, the fluorescence emissions at 620 nm and 665 nm after excitation at 350 nm was measured in a HTRF reader, e.g. a Rubystar (BMG Labtechnologies, Offenburg, Germany) or a Viewlux (Perkin-Elmer). The ratio of the emissions at 665 nm and at 622 nm was taken as the measure for the amount of phosphorylated substrate.

Structures are written as SMILES. Structures can show the parent of a compound that is named as a salt.

By IC50 is commonly meant the concentration at which inhibition is half-maximal.

Chain of His-tagged human recombinant kinase full-length Akt2 (P31751 whole entry): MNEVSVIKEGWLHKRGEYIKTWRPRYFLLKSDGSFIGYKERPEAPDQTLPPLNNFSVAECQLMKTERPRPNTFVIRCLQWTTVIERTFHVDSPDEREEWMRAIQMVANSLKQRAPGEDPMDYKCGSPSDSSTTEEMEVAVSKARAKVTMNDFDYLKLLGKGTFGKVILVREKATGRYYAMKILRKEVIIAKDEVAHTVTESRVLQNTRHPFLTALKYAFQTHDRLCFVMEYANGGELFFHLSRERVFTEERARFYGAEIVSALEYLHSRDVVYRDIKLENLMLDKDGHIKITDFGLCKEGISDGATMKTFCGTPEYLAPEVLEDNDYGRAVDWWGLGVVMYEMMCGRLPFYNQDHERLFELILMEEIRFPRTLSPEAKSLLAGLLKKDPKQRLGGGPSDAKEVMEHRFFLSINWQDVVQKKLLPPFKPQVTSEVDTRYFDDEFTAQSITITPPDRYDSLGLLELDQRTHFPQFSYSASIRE
Chain of His-tagged human recombinant kinase full-length Akt1 (P31749 whole entry): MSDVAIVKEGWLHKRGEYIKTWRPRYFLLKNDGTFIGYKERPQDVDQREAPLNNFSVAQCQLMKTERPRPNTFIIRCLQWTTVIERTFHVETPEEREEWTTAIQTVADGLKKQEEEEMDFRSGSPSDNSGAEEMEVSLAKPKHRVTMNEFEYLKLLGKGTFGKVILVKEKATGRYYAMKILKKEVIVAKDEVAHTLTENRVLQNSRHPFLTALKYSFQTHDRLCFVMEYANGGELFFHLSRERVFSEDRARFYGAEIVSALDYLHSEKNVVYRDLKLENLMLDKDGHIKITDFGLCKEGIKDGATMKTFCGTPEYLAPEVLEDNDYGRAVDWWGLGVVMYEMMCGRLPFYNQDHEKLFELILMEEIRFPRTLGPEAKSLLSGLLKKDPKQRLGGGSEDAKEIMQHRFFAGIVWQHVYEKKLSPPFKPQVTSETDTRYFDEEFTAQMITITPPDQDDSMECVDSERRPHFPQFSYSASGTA

Take `CNC(=O)c1cc(OC)c2nc(-c3ccc(C4(N)CCC4)cc3)c(-c3ccccc3)n2n1` [Example 26, 2-[4-(1-Aminocyclobutyl)phenyl]-8-methoxy-N-methyl-3-phenylimidazo[1,2-b]pyridazine-6-carboxamide]: the IC50 in assay [1] was 1800 nM; in assay [2], 0.9 nM; in assay [3] it was 10 nM; in assay [4], 1800 nM; in assay [5], 90 nM.
With `CSc1ccc2nc(-c3ccc(C4(N)CCC4)cc3)c(-c3ccccc3)n2n1` [Example 36, 1-{4-[6-(Methylsulfanyl)-3-phenylimidazo[1,2-b]pyridazin-2-yl]phenyl}cyclobutanamine], the IC50 stood at 1700 nM in assay [1]; 17 nM in assay [6]; 26 nM in assay [2]; 1800 nM in assay [4]; 1600 nM in assay [5].
With `NC1(c2ccc(-c3nc4c(-c5ncc[nH]5)cc(Cl)nn4c3-c3ccccc3)cc2)CCC1` [Example 24, 1-{4-[6-Chloro-8-(1H-imidazol-2-yl)-3-phenyl-imidazo[1,2-b]pyridazin-2-yl]phenyl} cyclobutanamine], the IC50 in assay [1] was 1800 nM; in assay [6], 35 nM; in assay [2], 200 nM; in assay [4], 1700 nM; in assay [5] it was 500 nM.
Regarding `CNC(=O)c1cc(OCC2CC2)c2nc(-c3ccc(C4(N)CCC4)cc3)c(-c3ccccc3)n2n1` [Example 64, 2-[4-(1-Aminocyclobutyl)phenyl]-8-(cyclopropylmethoxy)-N-methyl-3-phenylimidazo[1,2-b]pyridazine-6-carboxamide], the half-inhibitory concentration (IC50) in assay [1] came out at 150 nM; in assay [2], 0.9 nM; in assay [3], 12 nM; in assay [4], 360 nM; in assay [5] it was 84 nM.
Take `NC(=O)c1ccnn2c(-c3ccccc3)c(-c3ccc(C4(N)CCC4)cc3)nc12` [Example 59]: the IC50 stood at 11 nM in assay [2] and 100 nM in assay [5].
Regarding `CS(=O)(=O)c1ccc2nc(-c3ccc(C4(N)CCC4)cc3)c(-c3ccccc3)n2n1` [Example 38], the concentration for half-maximal inhibition (IC50) in assay [1] came to 510 nM; in assay [6], 370 nM; in assay [2] it was 20 nM; in assay [4] it was 740 nM; in assay [5], 530 nM.
For the compound `NC(=O)c1cc(C(N)=O)c2nc(-c3ccc(C4(N)CCC4)cc3)c(-c3ccccc3)n2n1` [Example 34, 2-[4-(1-Aminocyclobutyl)phenyl]-3-phenylimidazo[1,2-b]pyridazine-6,8-dicarboxamide], the IC50 is 330 nM in assay [1]; 3.1 nM in assay [2]; 14 nM in assay [3]; 1100 nM in assay [4]; 150 nM in assay [5].
For `COc1cc(-c2ccnn2C)c2nc(-c3ccc(C4(N)CCC4)cc3)c(-c3ccccc3)n2n1` [Example 74, 1-{4-[6-Methoxy-8-(1-methyl-1H-pyrazol-5-yl)-3-phenylimidazo[1,2-b]pyridazin-2-yl]phenyl}cyclobutanamine], the concentration for half-maximal inhibition (IC50) in assay [1] was found to be 2000 nM; in assay [6] it was 96 nM; in assay [2], 450 nM; in assay [4], 2100 nM.
As for `COC(=O)c1cc(OC)c2nc(-c3ccc(C4(N)CCC4)cc3)c(-c3ccccc3)n2n1` [Example 12, Methyl 2-[4-(1-aminocyclobutyl)phenyl]-8-methoxy-3-phenylimidazo[1,2-b]pyridazine-6-carboxylate], the IC50 in assay [1] was 1800 nM; in assay [6] it was 21 nM; in assay [2], 52 nM; in assay [4] it was 2000 nM; in assay [5], 260 nM.
Regarding `CN(C)C(=O)c1ccc2nc(-c3ccc(C4(N)CCC4)cc3)c(-c3ccccc3)n2n1` [Example 69, 2-[4-(1-Aminocyclobutyl)phenyl]-N,N-dimethyl-3-phenylimidazo[1,2-b]pyridazine-6-carboxamide], the concentration for half-maximal inhibition (IC50) in assay [1] is 1500 nM; in assay [6], 310 nM; in assay [2] it was 250 nM; in assay [4], 10000 nM; in assay [5], 4400 nM.
Turning to `COCCOc1cc(C(N)=O)nn2c(-c3ccccc3)c(-c3ccc(C4(N)CCC4)cc3)nc12` [Example 28, 2-[4-(1-Aminocyclobutyl)phenyl]-8-(2-methoxy-ethoxy)-3-phenylimidazo[1,2-b]pyridazine-6-carboxamide], the half-inhibitory concentration (IC50) was found to be 1800 nM in assay [1], 1 nM in assay [2], 1900 nM in assay [4] and 6.2 nM in assay [5].
With `NC1(c2ccc(-c3nc4ccc(C(F)(F)F)nn4c3-c3ccccc3)cc2)CCC1` [Example 3, 1-{4-[3-Phenyl-6-(trifluoromethyl)imidazo[1,2-b]pyridazin-2-yl]phenyl}-cyclobutanamine], the IC50 in assay [1] was determined as 1800 nM; in assay [2], 360 nM; in assay [4], 1700 nM; in assay [5] it was 4500 nM.
Regarding `CCOc1cc(C(=O)NC)nn2c(-c3ccccc3)c(-c3ccc(C4(N)CCC4)cc3)nc12` [Example 22, 2-[4-(1-Aminocyclobutyl)phenyl]-8-ethoxy-N-methyl-3-phenylimidazo[1,2-b]pyridazine-6-carboxamide], the IC50 in assay [1] was determined as 240 nM; in assay [6], 8 nM; in assay [2], 0.3 nM; in assay [4] it was 190 nM; in assay [5], 23 nM.
On to `NC(=O)c1cc(-c2cc[nH]n2)c2nc(-c3ccc(C4(N)CCC4)cc3)c(-c3ccccc3)n2n1` [Example 60, 2-[4-(1-Aminocyclobutyl)phenyl]-3-phenyl-8-(1H-pyrazol-3-yl)imidazo[1,2-b]pyridazine-6-carboxamide], for which the 50% inhibitory concentration (IC50) stood at 73 nM in assay [1]; 7.2 nM in assay [6]; 1 nM in assay [2]; 1500 nM in assay [4]; 8100 nM in assay [5].
As for `NC1(c2ccc(-c3nc4ccc(-c5ccc(F)cc5)nn4c3-c3ccccc3)cc2)CCC1` [Example 33, 1-{4-[6-(4-Fluorophenyl)-3-phenylimidazo[1,2-b]pyridazin-2-yl]phenyl}cyclobutanamine], the results for the IC50 in assay [6] and in assay [2] were 690 nM and 2900 nM, respectively.
Take `CCc1cc(OC)c2nc(-c3ccc(C4(N)CCC4)cc3)c(-c3ccccc3)n2n1` [Example 13, 1-[4-(6-Ethyl-8-methoxy-3-phenylimidazo[1,2-b]pyridazin-2-yl)phenyl]cyclobutanamine]: the IC50 in assay [1] is 1100 nM; in assay [3], 42 nM; in assay [4] it was 1500 nM; in assay [5], 660 nM.
As to `CCCc1ccnn2c(-c3ccccc3)c(-c3ccc(C4(N)CCC4)cc3)nc12` [Example 47, 1-[4-(3-Phenyl-8-propylimidazo[1,2-b]pyridazin-2-yl)phenyl]cyclobutanamine], the IC50 in assay [1] was found to be 1100 nM; in assay [6], 220 nM; in assay [2], 140 nM; in assay [4] it was 1700 nM; in assay [5], 96 nM.
For `CCOc1nn2c(-c3ccccc3)c(-c3ccc(C4(N)CCC4)cc3)nc2c(C)c1C` [Example 55, 1-[4-(6-Ethoxy-7,8-dimethyl-3-phenylimidazo[1,2-b]pyridazin-2-yl)phenyl]-cyclobutanamine], the half-maximal inhibitory concentration (IC50) was 1900 nM in assay [1], 680 nM in assay [2], 2000 nM in assay [4] and 1800 nM in assay [5].
For the compound `NC1(c2ccc(-c3nc4c(O)ccnn4c3-c3ccccc3)cc2)CCC1` [Example 32, 2-[4-(1-Aminocyclobutyl)phenyl]-3-phenylimidazo[1,2-b]pyridazin-8-ol], the values for the IC50 in assay [2] and in assay [5] were 160 nM and 2200 nM, respectively.
Consider `NC1(c2ccc(-c3nc4ccc(NC(=O)C(F)(F)F)nn4c3-c3ccccc3)cc2)CCC1` [Example 40, N-{2-[4-(1-Aminocyclobutyl)phenyl]-3-phenylimidazo[1,2-b]pyridazin-6-yl}-2,2,2-trifluoroacetamide], for which the half-inhibitory concentration (IC50) in assay [1] is 8400 nM; in assay [2] it was 2000 nM; in assay [4], above 10000 nM; in assay [5], 6100 nM.
For the compound `CCNC(=O)c1ccc2nc(-c3ccc(C4(N)CCC4)cc3)c(-c3ccccc3)n2n1` [Example 66, 2-[4-(1-Aminocyclobutyl)phenyl]-N-ethyl-3-phenylimidazo[1,2-b]pyridazine-6-carboxamide], the IC50 is 980 nM in assay [1], 17 nM in assay [2] and 2500 nM in assay [4].
On to `COc1cc(-c2cn[nH]c2)c2nc(-c3ccc(C4(N)CCC4)cc3)c(-c3ccccc3)n2n1` [Example 15, 1-{4-[6-Methoxy-3-phenyl-8-(1H-pyrazol-4-yl)imidazo[1,2-b]pyridazin-2-yl]phenyl} cyclobutanamine HCl salt], for which the half-inhibitory concentration (IC50) was determined as 1800 nM in assay [1]; 4.4 nM in assay [6]; 590 nM in assay [2]; 1800 nM in assay [4]; 1700 nM in assay [5].
Turning to `NC1(c2ccc(-c3nc4c(-c5ccc(F)cc5)ccnn4c3-c3ccccc3)cc2)CCC1` [Example 44, 1-{4-[8-(4-Fluorophenyl)-3-phenylimidazo[1,2-b]pyridazin-2-yl]phenyl}cyclobutanamine], the IC50 is 800 nM in assay [2], 310 nM in assay [3], 2000 nM in assay [4] and 380 nM in assay [5].
Regarding `CC(=O)c1ccc2nc(-c3ccc(C4(N)CCC4)cc3)c(-c3ccccc3)n2n1` [Example 43, 1-{2-[4-(1-Aminocyclobutyl)phenyl]-3-phenylimidazo[1,2-b]pyridazin-6-yl}ethanone], the IC50 stood at 6700 nM in assay [1]; 36 nM in assay [6]; 96 nM in assay [2]; 6200 nM in assay [4]; 1600 nM in assay [5].

Values taken from US9604989B2, “Imidazopyridazines as Akt kinase inhibitors” (Bayer Intellectual Property GmbH, priority 2011, dated 2017).
